BigSolDB 2.1

C[n+]1ccn(CCOCCOCCn2cc[n+](C)c2)c1.F[P-](F)(F)(F)(F)F.F[P-](F)(F)(F)(F)F
solubility (mole fraction)
Details	283 K	288 K	293 K	298 K	303 K	308 K
in DMF	0.098	0.101	0.105	0.109	0.113	–
in DMSO	–	–	0.106	0.119	0.131	0.14
in ethanol	3.3e-05	4e-05	4.7e-05	5.7e-05	7.2e-05	–
in methanol	0.000198	0.000231	0.000285	0.000369	0.000502	–
in water	0.00015	0.000197	0.000257	0.000334	0.00043	–
